The values below come from US6525027B2, “Use of ribose supplementation for increasing muscle mass and decreasing body fat in humans” (Bioenergy Inc., priority 2000, dated 2003).

Holding throughout (assay type): in vivo, humans
Experiment [1] is described as follows: Change in body weight after 10 weeks of training. The note with it: placebo group remained the same. The procedure: (§1) The study subjects were healthy males, ages 18 to 40, with previous weight training experience. […] Pages 111-112.
(§2) The duration of the study was 10 weeks and included a supplementation regime of D-Ribose or D-Glucose as placebo control, combined with resistance weight training. The subjects were divided into two matched groups, four subjects received D-Ribose and two subjects received placebo.
(§3) Baseline testing was conducted before training and supplementation. Prior to any testing the subjects were required to read and sign an informed consent document. Subject information to be collected prior to the start of the exercise regimen included age, height, weight, body composition and performance measures. The body composition was determined by hydrostatic weighing and skinfold measurements to determine beginning percentage muscle mass and percentage body fat.
(§4) There were four training sessions per week. At each training session, the subject was accompanied by a supervisor to ensure proper lifting technique, safety and efficiency of the training session. D-Ribose or placebo at a dose of 5 gm was taken one-half hour before and one-half after the training session. On the three days per week when the subjects were not trained, the subjects were allowed to consume the supplement at their convenience. […]

Experiment [2] in a line: Underwater weight test (hydrostatic weighing), % body fat, before and after 10 weeks of weight training with supplementation. The procedure: as §1, §2, §3
(§5) There were four training sessions per week. At each training session, the subject was accompanied by a supervisor to ensure proper lifting technique, safety and efficiency of the training session. D-Ribose or placebo at a dose of 5 gm was taken one-half hour before and one-half after the training session. On the three days per week when the subjects were not trained, the subjects were allowed to consume the supplement at their convenience. Dietary recalls were also kept on Tuesday, Wednesday and Thursday of each week, but not dietary requirements were imposed.
(§6) The lifting sessions were designed to exercise mainly the largest muscles of the body, that is, arm, leg, abdominals and back. All lifting sessions were preceded by warm-up sets of 20 repetitions at low weights. After week 4, the weight to be lifted was increased when the subject was able to do the maximum number of reps for all three sets. There was a 2-minute rest between each set and a 5 minute rest between each exercise. The lifting sessions were as follows:
(§7) Following the training period of 10 weeks, the subjects were tested as for the pre-testing procedure. […]

A short description of experiment [3]: Skinfold test, % body fat, before and after 10 weeks of weight training with supplementation. On the procedure:
as §1, §2, §3, §5, §6, §7

A short description of experiment [4]: Performance measures: maximum weight lifted once (1RM), bench press and squat, after 10 weeks of training.
Text: as §1, §2
Initial performance measures were individualized to each subject. The maximum weight each subject could lift once (1RM) was determined for the bench press and the squat lift. The maximal repetitions that each subject was able to lift of their own body weight was determined. Each subject performed as many repetitions as possible, followed by a one-minute rest and then repeated. The sets were continued until no weight could be lifted, limited by a maximum of 10 sets.
as §4

Setting [5] is: group average of four subjects, post compared to pre-training.
Where [6] appears, read: individual subjects, after 10 weeks of weight training, 5 gm before and after each session.
The mark [7] stands for this setting: individual subjects, post training compared to pre-training.
Where [8] appears, read: individual subjects, pre-training baseline.

Where “and” joins values, the source holds several entries; their conditions need not be identical. Identical values can stand only once.

For the molecule `O=C[C@H](O)[C@H](O)[C@H](O)CO` [Ribose, D-Ribose], in experiment [1], the “Average increase in body weight” value stood at 3.4 pounds. Further, the “Underwater Weight Test, % body fat, Difference, Average” value in experiment [2] (setting [5]) is −1.3%. For the same molecule, the “Underwater Weight Test, % body fat, Post” value in experiment [2] (setting [6]) was 18.5% and 23.6% and 12.5% and 27.8%. For the same molecule, the “Underwater Weight Test, % body fat, Difference” value in experiment [2] (setting [7]) is “+0.8% and −1.1% and −5.0% and −21.9%”. The “Underwater Weight Test, % body fat, Pre” value in experiment [2] (setting [8]) was 17.7% and 22.5% and 17.5% and 29.7%. The “Decrease in total body fat (underwater weight test) compared with placebo” value in experiment [2] (ten week period, in words) is reported as “greater decrease in body fat”. Besides, in experiment [3] (setting [5]), the “Skinfold Test, % Body Fat, Difference, Average” value is recorded as −3.1%. Further, in experiment [3] (setting [6]), the “Skinfold Test, % Body Fat, Post” value was 26.2% and 14.2% and 18.0% and 11.5%. Further, in experiment [3] (setting [7]), the “Skinfold Test, % Body Fat, Difference” value was −2.8% and −2.4% and −3.7% and −3.3%. The “Skinfold Test, % Body Fat, Pre” value in experiment [3] (setting [8]) was 29.0% and 16.6% and 21.7% and 14.8%. Further, in experiment [3] (ten week period, in words), the “Decrease in subcutaneous body fat (skinfold test) compared with placebo” value was “greater decrease in body fat”. In addition, in experiment [4] (placebo group 12 pounds), the “Increase in 1 RM Squat re-test” value was found to be 45.5 pounds. Besides, the “Increase in weight lifted once in the bench press (1RM)” value in experiment [4] (placebo group improved by 10 pounds) is recorded as 10.5 pounds.
